{
  "source": "paper PMC11189555",
  "about": "“Aryl amino acetamides prevent Plasmodium falciparum ring development via targeting the lipid-transfer protein PfSTART1” (Nature Communications, 2024)",
  "key": {"[1]": {"tested_on": "3D7 P. falciparum parasites", "experiment": "Growth inhibition assay (72 h, LDH activity)", "format": "cell-based, Plasmodium falciparum", "settings": "for inhibition at 0.625 µM / inhibition at 1.25 µM / inhibition at 2.5 µM / inhibition at 5 µM / inhibition at 10 µM / EC50 / inhibition at 0.0390625 µM / inhibition at 0.078125 µM / inhibition at 0.15625 µM / inhibition at 0.3125 µM: Plasmodium falciparum; for inhibition at 10 µM: read-out: % Inhibition; for inhibition at 0.0390625 µM: 3D7, M-833 0.0390625 uM; for inhibition at 0.078125 µM: 3D7, M-833 0.078125 uM; for inhibition at 0.15625 µM: 3D7, M-833 0.15625 uM; for inhibition at 0.3125 µM: 3D7, M-833 0.3125 uM", "procedure": "Parasite growth assays with inhibitory compounds were performed as per[11] and are fully described in the Supplementary Information. […]\nGrowth inhibition assays. Synchronised ring-stage parasites (0.3-0.6% parasitemia, 2% haematocrit) were grown for 72 h in a serial-dilution of the compound under […]\nand compound 4. Note that M-833 was first purchased from MolPort (MolPort -002-267-916) then made in-house at WEHI: the differences observed in EC50s across experiments are attributed to the different batches of M -833. For some experiments, 0, 0.25 or 2.5 mM of glucosamine (GlcN) was also added. Experiments were set up in technical duplicates or triplicates. Following a freeze -thaw cycle, lactate dehydrogenase (LDH) activity was assessed as an indicator of parasite growt h 5. 30 μL of parasite culture was incubated for 30 min in the dark with 75 μL Malstat mixture (0.1 M Tris pH 9.0, 20 g/L lactic acid, pH 7.5, 0.2% Triton-X100, 0.5 g/L acetylpyridine adenine dinucleotide (APAD, Sigma), 200 μg/mL nitroblue tetrazolium (NBT; Sigma), 1 μg/mL phenozine ethosulfate (PES; Sigma)). Absorbance was then measured at 650 nm, transformed using the formula below, plotted against the logarithm of the concentrations, and a non-linear regression (log(inhibitor) vs. response, variable slope) was calculated using GraphPad Prism to assess the half-inhibitory […]\nGrowth inhibition % = (1 − average(sample)− average(uRBC)) ∗ 100 […]\nThe DMSO samples were also used to assess growth of parasite in the presence of 0.25 and 2.5 mM GlcN (normalised by DMSO in 0 mM GlcN). […]"}, "[2]": {"target": "T1, recombinant PfSTART1(WT) (I149-V394) (Plasmodium falciparum, UniProt Q8I298)", "T1 construct": "START domain alone (I149-V394 from PF3D7_0104200); 8xHis tag (N); TEV protease cleavage site (N); made in house; host or cells: Sf21 insect cells (baculovirus)", "T1 sequence (Q8I298 entry or part of it)": "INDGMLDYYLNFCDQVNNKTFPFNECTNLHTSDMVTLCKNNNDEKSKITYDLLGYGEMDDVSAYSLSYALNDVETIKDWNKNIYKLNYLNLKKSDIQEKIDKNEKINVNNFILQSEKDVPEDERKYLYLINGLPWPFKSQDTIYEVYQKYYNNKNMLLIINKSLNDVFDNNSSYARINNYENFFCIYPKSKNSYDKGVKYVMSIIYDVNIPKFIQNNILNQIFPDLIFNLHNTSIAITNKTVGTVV", "experiment": "Isothermal titration calorimetry", "format": "binding", "settings": "for Differential Power DP_Y / ΔH NDH_Y: PfSTART(WT), ITC replicate data", "source_text": "Codon optimised (Spodoptera frugiperda, Sf) START domain alone (I149-V394 from PF3D7_0104200) was synthesised by Integrated DNA Technologies and cloned into a modified baculovirus transfer vector (pAcGP67-A) with a N-terminal GP67-signal sequence, 8xHis tag, and TEV protease cleavage site. Recombinant baculovirus was generated via the flashBACTM Baculovirus Expression System using Sf21 cells (Life Technologies), amplified to reach a third passage viral stock, and 1.5% used to infect Sf21 for protein expression. After incubation for three days at 28 °C, media containing secreted protein was harvested by centrifugation and supplemented with 50 mM Tris pH 7.5, 20 mM MgCl2, 100 mM NaCl, and 10-20 mM imidazole. The supplemented protein sample was purified by nickel affinity chromatography (HisTrap Excel 5 mL, Cytiva), and eluted with 20 mM Tris pH 7.5, 500 mM NaCl, 300-500 mM imidazole. Eluted fractions were further purified using size-exclusion chromatography (Superdex S75 16/600 or Superdex 10/300, Cytiva) with the column pre-equilibrated with 20 mM HEPES pH 7.5, 150 mM NaCl, and peak-containing fractions concentrated and stored at -80 °C until required. If required, prior to ITC, a second size-exclusion chromatography step was performed to remove soluble aggregates.\nITC experiments were performed on a MicroCal PEAQ-ITC calorimeter at 25 °C, with a stirring speed of 750 rpm and a reference power of 5 μcal/sec. 500 μM M-833 series inhibitor solutions were diluted to 10 μM in 50 mM NaPO4^-3 (pH 7.4), 150 mM NaCl with a final DMSO concentration of 2% (v/v) (cell sample). PfSTART1 protein was dialysed extensively against 50 mM NaPO4^-3 (pH 7.4), 150 mM NaCl, before diluting to 90 μM in the same buffer with 2% (v/v) DMSO (syringe sample). The first injection was 0.4 μL over a 0.8 s duration, and the remaining 19 injections were 2 μL of 4 s duration, with 150 s injection spacing. Data were collected and analysed using the PEAQ-ITC software (MicroCal) and fit by a single site binding model. A fitted offset (constant control heat) was also applied to the integrated heat."}},
  "note": "Where two headings read alike, the source gives them in different places.",
  "data": [
    {"smiles": "Cc1cc(Cl)c(S(=O)(=O)N2CCCC2)cc1OCC(=O)NC1CCCCC1", "note": "[M-833]", "values": [
      {"measurement": "inhibition at 0.625 µM", "setting": "[1]; 3D7, 3D7 replicate 1, M-833 0.625 uM", "value": 84.4, "unit": "%"},
      {"measurement": "inhibition at 1.25 µM", "setting": "[1]; 3D7, 3D7 replicate 1, M-833 1.25 uM", "value": 93.1, "unit": "%"},
      {"measurement": "inhibition at 2.5 µM", "setting": "[1]; 3D7, 3D7 replicate 1, M-833 2.5 uM", "value": 95.8, "unit": "%"},
      {"measurement": "inhibition at 5 µM", "setting": "[1]; 3D7, 3D7 replicate 1, M-833 5 uM", "value": 95.5, "unit": "%"},
      {"measurement": "inhibition at 10 µM", "setting": "[1]; 3D7, 3D7 replicate 1, M-833 10 uM", "value": 97.3, "unit": "%"},
      {"measurement": "EC50", "setting": "[1]; 3D7, 72 h, Fig 2B, 3D7, 72 h, n = 3, unit only in x-axis title, read-out: EC50 (95% confidence interval)", "value": 97.6, "unit": "nM"},
      {"measurement": "EC50", "setting": "[1]; 3D7, 72 h, Fig 2D, 3D7, 72 h, n = 3, read-out: EC50 (95% confidence interval)", "value": 49.7, "unit": "nM"},
      {"measurement": "EC50", "setting": "[1]; 3D7, 72 h, Supplementary Table 1, 3D7, 72 h, read-out: EC50", "value": 156, "unit": "nM"},
      {"measurement": "EC50", "setting": "[1]; 3D7, Fig 1B, 3D7, 10 µM to 0.04 µM M-833, n = 3, unit only on x-axis label, read-out: EC50 (95% confidence interval)", "value": 170, "unit": "nM"},
      {"measurement": "EC50", "setting": "[1]; 3D7, Fig 3C, 3D7, 0 mM GlcN, n = 4, unit on plot axis, read-out: EC50 M-833 (95% confidence interval)", "value": 157, "unit": "nM"},
      {"measurement": "EC50", "setting": "[1]; 3D7, Fig 3C, 3D7, 0.25 mM GlcN, n = 4, unit on plot axis, read-out: EC50 M-833 (95% confidence interval)", "value": 158, "unit": "nM"},
      {"measurement": "EC50", "setting": "[1]; 3D7, Fig 3C, 3D7, 2.5 mM GlcN, n = 4, unit on plot axis, read-out: EC50 M-833 (95% confidence interval)", "value": 118, "unit": "nM"},
      {"measurement": "EC50", "setting": "[1]; 3D7, Fig 3F, 3D7, 0.25 mM GlcN, n = 3, read-out: EC50 M-833 (95% confidence interval)", "value": 54.8, "unit": "nM"},
      {"measurement": "EC50", "setting": "[1]; 3D7, Fig 3F, 3D7, 2.5 mM GlcN, n = 3, read-out: EC50 M-833 (95% confidence interval)", "value": 37.3, "unit": "nM"},
      {"measurement": "EC50", "setting": "[1]; 3D7, Fig 4A, 3D7 parasites, read-out: Pf 3D7 EC50 (SD)", "value": 1100, "unit": "nM"},
      {"measurement": "inhibition at 0.0390625 µM", "setting": "[1]; 3D7 replicate 1", "value": 1.91, "unit": "%"},
      {"measurement": "inhibition at 0.0390625 µM", "setting": "[1]; 3D7 replicate 3", "value": -5.13, "unit": "%"},
      {"measurement": "inhibition at 0.078125 µM", "setting": "[1]; 3D7 replicate 1", "value": 30.8, "unit": "%"},
      {"measurement": "inhibition at 0.078125 µM", "setting": "[1]; 3D7 replicate 3", "value": -1.15, "unit": "%"},
      {"measurement": "inhibition at 0.15625 µM", "setting": "[1]; 3D7 replicate 1", "value": 57.1, "unit": "%"},
      {"measurement": "inhibition at 0.15625 µM", "setting": "[1]; 3D7 replicate 3", "value": 12.4, "unit": "%"},
      {"measurement": "inhibition at 0.3125 µM", "setting": "[1]; 3D7 replicate 1", "value": 82.6, "unit": "%"},
      {"measurement": "inhibition at 0.3125 µM", "setting": "[1]; 3D7 replicate 3", "value": 44.5, "unit": "%"},
      {"measurement": "inhibition at 0.625 µM", "setting": "[1]; 3D7, M-833 0.625 uM, 3D7 replicate 1", "value": 87.3, "unit": "%"},
      {"measurement": "inhibition at 0.625 µM", "setting": "[1]; 3D7, M-833 0.625 uM, 3D7 replicate 3", "value": 64.5, "unit": "%"},
      {"measurement": "inhibition at 1.25 µM", "setting": "[1]; 3D7, M-833 1.25 uM, 3D7 replicate 1", "value": 91, "unit": "%"},
      {"measurement": "inhibition at 1.25 µM", "setting": "[1]; 3D7, M-833 1.25 uM, 3D7 replicate 3", "value": 73.5, "unit": "%"},
      {"measurement": "inhibition at 2.5 µM", "setting": "[1]; 3D7, M-833 2.5 uM, 3D7 replicate 1", "value": 91.8, "unit": "%"},
      {"measurement": "inhibition at 2.5 µM", "setting": "[1]; 3D7, M-833 2.5 uM, 3D7 replicate 3", "value": 77.3, "unit": "%"},
      {"measurement": "inhibition at 5 µM", "setting": "[1]; 3D7, M-833 5 uM, 3D7 replicate 1", "value": 91.3, "unit": "%"},
      {"measurement": "inhibition at 5 µM", "setting": "[1]; 3D7, M-833 5 uM, 3D7 replicate 3", "value": 83.4, "unit": "%"},
      {"measurement": "inhibition at 10 µM", "setting": "[1]; 3D7, M-833 10 uM, 3D7 replicate 1", "value": 91.1, "unit": "%"},
      {"measurement": "inhibition at 10 µM", "setting": "[1]; 3D7, M-833 10 uM, 3D7 replicate 3", "value": 78, "unit": "%"},
      {"measurement": "effect of GlcN addition on EC50", "setting": "[1]; control 3D7", "value": "did not change the EC50"},
      {"measurement": "Kd", "setting": "[2]; ITC, 25 °C, 90 µM PfSTART1 titrated into 10 µM compound, n = 2, ± SD", "value": "42 ± 12", "unit": "nM"},
      {"measurement": "ΔH", "setting": "[2]; ITC, 25 °C, n = 2, ± SD", "value": "-7.6 ± 0.2", "unit": "kcal/mol"},
      {"measurement": "−TΔS", "setting": "[2]; ITC, 25 °C, n = 2, ± SD", "value": "-2.5 ± 0.4", "unit": "kcal/mol"},
      {"measurement": "Differential Power DP_Y", "setting": "[2]; DP_X 0.083333", "value": -0.001604},
      {"measurement": "Differential Power DP_Y", "setting": "[2]; DP_X 0.1", "value": -0.001099},
      {"measurement": "ΔH NDH_Y", "setting": "[2]; NDH_X 0.104703", "value": -8.4},
      {"measurement": "ΔH NDH_Y", "setting": "[2]; NDH_X 0.192876", "value": -6.335}
    ]}
  ]
}
